How the values were obtained:
[1] = tested on: E. coli RP437; assay: Static biofilm inhibition assay (crystal violet, 96-well plate); format: cell-based, Escherichia coli; conditions: E. coli RP437, 200 μM, 24 h, crystal violet
Description: A primary objective was to test the ability of SHLs to inhibit biofilm formation against E. coli RP437. […] Viable controls were required that would allow us to measure and compare the activity of SHLs against known biofilm inhibitors and naturally occurring AI-1 signal molecules. […] The activity of this class of molecule is presumably similar or even marginally higher than that of brominated furanone (BF8 48) (56%).
For the present invention, the E. coli RP437 biofilms were allowed to develop in a 96-well plate in the absence or presence of SHLs. After 24 hours, the planktonic bacteria and remaining media were removed and the crystal violet was introduced in the wells. The bacterial biofilm being formed at the air/liquid interface on the inside wall of the well is stained readily by crystal violet. After removing the excess crystal violet and repeatedly washing the wells with water, followed by ethanol solubilization of the dye, allows quantification of the amount of biofilm by spectrophotometry (OD600). […] We believe that the observed biofilm inhibition activity cannot be directly attributed to any predominant structural feature inherent in the SHLs. Rather, the small deviations in the structures of the SHLs and their effect on biofilm formation could be a result of the nature of non-covalent forces that arise during SHLs presumed binding within the receptor active site.
An overnight culture of E. coli RP437 grown in LB media (OD600 of 1.0) containing streptomycin (10 μg/mL) was subsequently sub-cultured to an OD600 of 0.04 (1:100 dilution with LB media). To each well in the solvent resistant polypropylene or polystyrene-based 96-well microtiter plates were added 200 μL of the sub-cultured bacteria respectively. To each of the wells containing the bacterial cultures varying concentrations of the synthetic molecules was added and the contents in each well were gently mixed. Control wells comprised of untreated bacterial culture (four replicates) and the LB media (four replicates). The microtiter plates were then covered and wrapped in a Saran wrap and allowed to incubate at 37° C. for 24 hours without shaking. After that time, the microbial medium in each well was discarded and the remaining biofilm that was formed during incubation was stained with 225 μL of a 0.1% crystal violet solution and allowed to incubate at room temperature for 30 minutes. After the incubation period, the crystal violet was discarded and the wells were gently washed twice with water (230-250 μL) and allowed to air dry for 15-20 minutes. For the purpose of solubilizing the remaining crystal violet that had stained the biofilm present in the interior of the 96-well plates, a 250 μL solution of 95% ethanol was used. After the addition of 95% ethanol, the contents of each well were mixed thoroughly and allowed to sit for 15-20 minutes. Finally, the biofilm formed was quantified by transferring 100 μL of the ethanol solution into a fresh polystyrene microtiter dish that was subsequently read by an absorbance plate reader (A600). After elimination of background absorbance, the percentage inhibition was calculated by dividing the amount of absorbed crystal violet in wells that contained the synthetic compound by the amount of absorbed crystal violet in wells that contained bacteria only (control). Biofilm assays for each synthetic compound were repeated two to three times and each concentration considered for inhibition studies were tested over four replicates.

[2] = tested on: DsRed-express-labeled E. coli RP437; assay: Confocal imaging of E. coli biofilms on stainless steel coupons (COMSTAT); format: cell-based, Escherichia coli; conditions: 200 μM, 24 h at 37° C., CLSM/COMSTAT
Procedure: The effects of SHLs upon the bacterial biofilm were examined; more specifically, the effect of SHLs upon the biofilm architecture. […] These studies were conducted by static biofilm assays employing crystal violet staining that indicates the total biomass that resides within a biofilm but provides no indication regarding the topology of the biofilms. To elucidate the topological features assumed by the E. coli RP437 biofilm in the presence of SHLs and BF8 48, studies of biofilms consisting of DsRed-express-labeled E. coli RP437 that is fluorescent and can be easily visualized by confocal laser scanning microscopy (CLSM) were performed. […] Further, the stacked images in vinyl-SHL 3 indicating the maximum thickness of the biofilm is considerably smaller than the biofilms in BF8 48 and the untreated E. coli samples. We developed the biofilms consisting of DsRed-express-labeled E. coli on stainless steel coupons (316 L, 1 in×1 in.) for 24 h at 37° C. that were treated with BF8 48 or SHLs or were left untreated. All the samples were analyzed with CLSM (see FIG. 8) and the maximum thickness of biofilms calculated using the COMSTAT software. […] Moreover, butyl-SHL 8 and butoxy-SCPA 46 reduce the biofilm thickness by 38% and 27%, respectively.
An overnight culture of E. coli RP437 pRSH103 grown in LB media (OD600 of 1.0) containing tetracycline (3 μg/mL) was subsequently sub-cultured to an OD600 of 0.04 (1:100 dilution with LB media). To each well in the solvent resistant polypropylene or polystyrene-based 24-well microtiter plates was added 200 μM synthetic molecules in DMSO solution respectively. In addition, to each of the wells containing the known concentrations of synthetic molecules was added 2 mL of the sub-cultured bacteria and the contents in each well were gently mixed. […] The fluorescent emission was detected with a LP 560 nm emission filter. The coupons were gently placed upside down on a microscope cover glass (24×60 mm, No. 2, VWR International LLC, West Chester, Pa., USA) and analyzed with CLSM. […]

[3] = tested on: SK-N-SH cells; assay: Human neuroblastoma cancer cell cytotoxicity assay (CCK-8); format: cell-based; conditions: 200 or 300 μM, 1 h exposure, read after 24 h
Procedure: After examining the efficacy of SHLs at inhibiting biofilm, dispersing established biofilms, and reducing the maximum thickness of biofilms without being toxic to the planktonic bacterial cells, we tested the cytotoxicity of the key potent SHLs on the human neuroblastoma cancer cell line SK-N-SH. These studies were conducted such that the SK-N-SH cells were subjected to the maximum concentrations of the key potent SHLs tested on bacteria.
A previously grown T-flask of SK-N-SH cells was observed under a microscope to confirm the confluence of the cells. Next, the old media was discarded and the adherent cells were washed with ˜10 mL of MEM(−). The wash was discarded and 2 mL of Trypsin-EDTA solution was added to the T-flask and incubated for 10 minutes at 37° C. and at 5% atmosphere of CO2. Afterwards, the flask was viewed under a microscope to determine if the cells were suspended in the solution. Subsequently, ˜8 mL of MEM(+) was added to the flask and carefully mixed via pipette to break-up any large clusters of cells. 100 μL of the culture was added to an Eppendorf tube and combined with 100 μL of […]. A hemocytometer and glass cover slide was carefully cleaned with a kimwipe and ethanol. Placing the glass cover slide on top of the hemocytometer, 10 μL of the mixture in the Eppendorf tube was pipetted into the two grooves on the hemocytometer, avoiding the generation of bubbles. The hemocytometer was viewed one chamber at time under a microscope and the live cells were counted using the hemocytometer cell counting method. The remaining cell culture in the T-flask was diluted with MEM(+) to 25 mL such that there would be ˜5000 cells/mL. 100 μL of the culture was placed into wells on a 96 well plate such that one column had only MEM(+) and the wells on the outer perimeter of the plate were left empty. Four plates were made in this manner so that there would be plates for times 0, 24, 48, and 72 h. The plate was then incubated for 24 h at 37° C. and at 5% atmosphere of CO2. Subsequently, the old media was discarded and the wells were subjected to either 200 μM or 300 μM solutions of compounds 3, 4, 8, and 46 in MEM(+) (100 μL) such that one column still contained only MEM(+) and one column contained MEM(+) and untreated cells. The plate was incubated for 1 h and then the solutions were discarded and fresh MEM(+) media was added (100 μL). Each plate was then incubated for the desired time (0, 24, 48, or 72 h). After incubation, 10 μL of CCK-8 solution was added to each well and then the plate was incubated for 2 h followed by reading the OD450 with a microplate reader.

[4] = tested on: P. aeruginosa PAO1-GFP/pSMC2; assay: Confocal microscopy analysis of P. aeruginosa biofilms (COMSTAT); format: cell-based, Pseudomonas aeruginosa; conditions: 400 μM, 24 h at 37° C., CLSM/COMSTAT
Procedure: FIG. 13 is a series of representative confocal laser scanning microscopy images of biofilm formation by P. aeruginosa PAO1-GFP/pSMC2 in the absence of inhibitor (A); and in the presence of 400 μM BF4 49 (B); 400 μM hexyl-SHL 9 (C); 400 μM tolyl-SHL 11 (D); and 400 μM thienyl-SHL 12 (E).
FIG. 14 is a graph of quantification of biofilm formation by P. aeruginosa PAO1-GFP/pSMC2 in the absence and presence of 400 μM SHLs 9, 11 and 12. Biomass, mean thickness, and surface area are quantified from fluorescence image using COMSTAT software. Z-Stack images from at least four different locations were used. Values are normalized by that of the brominated furanone-free control.
We developed the biofilms consisting of […] P. aeruginosa on stainless steel coupons (316 L, ⅜ in×⅜ in.) for 24 h at 37° C. in the absence or presence of 400 μM hexyl-SHL 9, tolyl-SHL 11, thienyl-SHL 12, and BF4 49. All the samples were analyzed with CLSM (see FIG. 13) and the biomass, surface area, and mean thickness of biofilms were calculated using the COMSTAT software. Tolyl-SHL 11 reduced the biomass by ˜90%, similar to that of the toxic BF4 49.

Compound	biofilm inhibition (in words) [1]	inhibition of biofilm formation [1] [%]	further results
CCCCOc1c(OCCCC)c(=O)c1=O [BSQ 44, 3,4-dibutoxy-cyclobut-3-ene-1,2-dione, reference compound]	Poor biofilm inhibition	–	–
CC(C)Oc1c(OC(C)C)c(=O)c1=O [IPSQ 42, reference compound]	Poor biofilm inhibition	–	–
C=CCc1c(NC2CCOC2=O)c(=O)c1=O (stereo not drawn) [allyl-SHL2]	Poor biofilm inhibition	–	–
CCCCOc1c(NC2CCOC2=O)c(=O)c1=O (stereo not drawn) [butoxy-SHL 1]	weaker biofilm inhibition	–	–
CCCCc1c(NC2CCOC2=O)c(=O)c1=O (stereo not drawn) [butyl-SHL 8]	–	48	reduction of the maximum thickness of biofilm [2]: 38%; cytotoxicity on human neuroblastoma cancer cells (in words) [3]: does not appear to be toxic
CCCCCCc1c(NC2CCOC2=O)c(=O)c1=O (stereo not drawn) [hexyl-SHL 9]	–	42	P. aeruginosa biofilm inhibition (in words) [4]: mild
O=C1OCCC1Nc1c(-c2ccccc2)c(=O)c1=O (stereo not drawn) [phenyl-SHL 10]	–	44	–
C=Cc1c(NC2CCOC2=O)c(=O)c1=O [vinyl-L-SHL 4]	weaker biofilm inhibition	–	cytotoxicity on human neuroblastoma cancer cells (in words) [3]: toxic

Source: patent US8940911B2, “Squarylated lactones inhibitors for bacterial biofilm formation” (Syracuse University, priority 2012, dated 2015)
